In ChEMBL document CHEMBL1697681, “Predicting phospholipidosis using machine learning” (Mol Pharm, 2010):

Test system: Phospholipidosis
Assay: Literature-mined public compounds from Lowe et al phospholipidosis modelling dataset

SMILES	Phospholipidosis
CCN(CC)CCn1nc2c3c(c(C)ccc31)Sc1cc(Cl)ccc1-2	Positive
CCN(CC)CC(=O)Nc1c(C)cccc1C [LIDOCAINE]	Positive
CCCN[C@@H]1[C@H](C)[C@@H](O)[C@](C)(O)[C@@H](CC)OC(=O)[C@H](C)[C@@H](O[C@H]2C[C@@](C)(OC)[C@@H](O)[C@H](C)O2)[C@H](C)[C@@H](O[C@@H]2O[C@H](C)C[C@H](N(C)C)[C@H]2O)[C@](C)(O)C[C@H]1C	Positive
NCC[C@H](O)C(=O)N[C@@H]1C[C@H](N)[C@@H](O[C@H]2O[C@H](CN)[C@@H](O)[C@H](O)[C@H]2O)[C@H](O)[C@H]1O[C@H]1O[C@H](CO)[C@@H](O)[C@H](N)[C@H]1O [AMIKACIN]	Positive
CCC(=O)C(CC(C)N(C)C)(c1ccccc1)c1ccccc1 (stereo not drawn) [METHADONE]	Negative
O=C(NC1CCN(CCc2c[nH]c3ccccc23)CC1)c1ccccc1 [INDORAMIN]	Positive
CC(=O)N1CCN(c2ccc(OCC3COC(Cn4ccnc4)(c4ccc(Cl)cc4Cl)O3)cc2)CC1 (stereo not drawn) [KETOCONAZOLE]	Positive
CN1CCN2c3ccccc3Cc3ccccc3C2C1 (stereo not drawn) [MIANSERIN]	Positive
CCN(CC)CCCC(C)Nc1ccnc2cc(Cl)ccc12 (stereo not drawn) [CHLOROQUINE]	Positive
CC(C)NCC(O)c1ccc(NS(C)(=O)=O)cc1 (stereo not drawn) [SOTALOL]	Negative
NN [HYDRAZINE]	Negative
CCN(CC)CCCC(C)Nc1c2ccc(Cl)cc2nc2ccc(OC)cc12 (stereo not drawn) [QUINACRINE]	Positive
CC1(C)C(=O)NC(=O)N1CC(N)COc1ccc(-c2ccc(OC(F)(F)F)cc2)cc1 (stereo not drawn)	Positive
CC1=C(CC(=O)O)c2cc(F)ccc2/C1=C\c1ccc([S+](C)[O-])cc1 (stereo not drawn)	Negative
CCN(CC)CCOc1ccc2c(c1)C(=O)c1cc(OCCN(CC)CC)ccc1-2 [TILORONE]	Positive
NC[C@H]1Cc2ccc(F)cc2[C@@H](c2ccccc2)O1	Positive
CC[C@H]1CN2CCc3cc(OC)c(OC)cc3[C@@H]2C[C@@H]1C[C@H]1NCCc2cc(OC)c(OC)cc21 [EMETINE]	Positive
CN(C)CCCN(C)[C@H]1CC[C@H]2[C@@H]3CC=C4C[C@@H](O)CC[C@]4(C)[C@H]3CC[C@]12C [AZACOSTEROL]	Positive
